The assay deals with focal adhesion kinase (FAK). The assay can be described thus: FAK activation in HUVEC (pY397 FAK immunoblot). The settings on record: time course. In kind it is cell-based, human. The method, then: HUVEC were stimulated with one of either Ang 1 (R&D Systems), Vasculotide, avidin or clustered Vasculotide (preclustered with a 4:1 molar ratio of peptide:avidin in PBS for 2 hours at 4° C.) at various doses. Stimulations with Vasculotide were performed in full serum containing growth media for 15 minutes unless otherwise indicated. Cell lysate preparations and immunoblot analysis were performed by standard methods. Antibodies used for immunoblotting (in this and/or subsequent Examples) were monoclonal anti Tie 2 (Pharminogen), polyclonal anti pY992 Tie 2, (Cell Signaling Technology), polyclonal anti MAPK (Cell Signaling Technology), monoclonal anti phospho MAPK (Cell Signaling Technology), polyclonal anti AKT (Cell Signaling Technology), polyclonal anti pS473 AKT (Cell Signaling Technology), monoclonal anti pS1177 eNOS (BD Biosciences), polyclonal anti pY397 FAK (Biosource), polyclonal anti FAK (Santa Cruz), polyclonal anti smooth muscle actin-Cy3 direct conjugate (Dako), polyclonal anti PECAM (Pharminogen) and polyclonal anti smooth muscle actin (Sigma).
To examine Tie 2 activation kinetics, HUVEC were stimulated with native Ang 1 or clustered Vasculotide for various times. Stimulation was performed in 10% FBS. […]

Regarding “clustered Vasculotide: Vasculotide clustered with avidin in a 4:1 ratio, an obligate tetrameric compound”, the “Activation of FAK” value is “no significant effect”.

For the origin of these results see patent publication US8957022B2, “Multimeric tie 2 agonists and uses thereof in stimulating angiogenesis” (Sunnybrook Health Sciences Centre, priority 2006, dated 2015).
